{
  "source": "patent US20260048030A1",
  "about": "“REPARIXIN LIQUID SUSPENSIONS” (Dompe' Farmaceutici SPA, priority 2022, published 2026)",
  "origin": "cited, not measured here",
  "tested_on": "hospitalized patients with severe COVID-19 pneumonia",
  "conditions": "phase 2",
  "data": [
    {"smiles": "CC(C)Cc1ccc([C@@H](C)C(=O)NS(C)(=O)=O)cc1", "note": "[Reparixin, R-(−)-2-(4-isobutylphenyl)propionyl methansulfonamide]", "values": [
      {"measurement": "Clinical outcomes compared with the standard of care", "result": "improved clinical outcomes"}
    ]}
  ]
}
